One data set deals with gastric peristalsis. Briefly: Testing of the Gastric Peristalsis (gastric pressure waves, narcotized rats). Format: in vivo, rat. As to conditions: before vs after administration; for inhibition in vivo at 20 mg/kg: Rattus norvegicus, ip, read-out: Frequency Decrease in %; for Factor of the Increase in Amplitude: i.p., 20 mg/kg. An excerpt: To determine the functioning of the gastric peristalsis, rats weighing about 200 g are narcotized by means of ketamine hydrochloride and xylazine. A catheter is introduced into the Vena jugularis of the narcotized rats and a tracheal catheter into the trachea. A stomach probe is inserted into their stomach and tied thereto. The probe is connected via a three-way cock with a Statham pressure imparting device (P 23 DB). The stomach is sealed off by a ligature at the pylorus and at the cardia. The stomach is filled with 3 ml of an 0.9% aqueous sodium chloride solution. The pressure waves produced by the stomach are continuously registered by a suitable recording device such as by a Watanabe Multicorder (MC 641). In order to determine the effect of the compounds to be tested, they are dissolved in physiological sodium chloride solution or are suspended in Tylose MH 50 solution. Said solutions or suspensions are administered intraperitoneally to the rats in a dose of 20 mg/kg. The amplitudes and frequencies of the pressure wave-like movements of the stomach as they occur before and after administration of the compound to be tested, are compared.
This effect in combination with a pronounced decrease in the frequencies of varying magnitude results in an improved food passage through the stomach.

A short description of data set [1]: Determination of the Acute Toxicity (acute seven-day toxicity). As to conditions: mouse, in vivo, ip, fasting white NMRI mouse, single i.p. dose. Here is the method: The acute seven-day toxicity is determined by intraperitoneal administration of a single dose of the respective compound to a fasting white NMRI mouse. The LD50 -values are calculated via electronic data processing by a probit analysis as described in the book "Grundbegriffe der Biometrie" (Basic Biometrical Definitions) by L. Cavalli-Sforza, page 153 et seq., published by Gustav Fischer Verlag, Stuttgart, 1964.

Each structure is given as a SMILES string.

For the compound `CN(C)[C@@H]1COc2ccccc2[C@H](O)C1` (relative stereo) [O], in the data set with gastric peristalsis, the inhibition in vivo at 20 mg/kg was 7%.

`CCCCNC1COc2ccccc2C(=O)C1` (racemic) [Compound 7, rac.-3-(n-butylamino)-3,4-dihydro-1-benzoxepin-5(2H)-one]: in the data set on gastric peristalsis, the inhibition in vivo at 20 mg/kg worked out at 28% and the “Factor of the Increase in Amplitude” value was 6.6.

In general, LD50 refers to the dose expected to kill half of the subjects tested. Turning to `CN(C)CCCNC1COc2ccccc2C(=O)C1` (racemic) [Compound 4, rac.-3-(γ-dimethylamino-propylamino)-3,4-dihydro-1-benzoxepin-5(2H)-one], in the data set with gastric peristalsis, the inhibition in vivo at 20 mg/kg is 25% and the “Factor of the Increase in Amplitude” value came to 3.7. In addition, in data set [1], the LD50 at 168 h came out at 272 mg/kg.

In the case of `CN(C)CCCN[C@@H]1COc2ccccc2[C@H](O)C1` (relative stereo) [E], the inhibition in vivo at 20 mg/kg with gastric peristalsis was found to be 32%. This compound also came in with an LD50 at 168 h in data set [1] of 664 mg/kg.

`CCN(CC)[C@@H]1COc2ccccc2[C@H](O)C1` (relative stereo) [F] had an LD50 at 168 h in data set [1] of 183 mg/kg.

Regarding `CC(C)NC1COc2ccccc2C(=O)C1` (racemic) [Compound 2, rac.-3-isopropylamino-3,4-dihydro-1-benzoxepin-5(2H)-one], in the data set on gastric peristalsis, the inhibition in vivo at 20 mg/kg came out at 16% and the “Factor of the Increase in Amplitude” value is recorded as 2.6. The LD50 at 168 h in data set [1] came out at 183 mg/kg.

Regarding `CN(C)C1COc2ccccc2C(=O)C1` (racemic) [Compound 5, rac.-3-dimethylamino-3,4-dihydro-1-benzoxepin-5(2H)-one], in the data set on gastric peristalsis, the inhibition in vivo at 20 mg/kg is 12% and the “Factor of the Increase in Amplitude” value came to 1.3. The compound also returned an LD50 at 168 h in data set [1] of 285 mg/kg.

As to `CC(C)N[C@@H]1COc2ccccc2[C@H](O)C1` (relative stereo) [C], the inhibition in vivo at 20 mg/kg in the data set on gastric peristalsis is 13%.

With `O=C1CC(NCc2ccccc2)COc2ccccc21` (racemic) [Compound 3, rac.-3-benzylamino-3,4-dihydro-1-benzoxepin-5(2H)-one], in the data set with gastric peristalsis, the inhibition in vivo at 20 mg/kg was 7% and the “Factor of the Increase in Amplitude” value is 3.6. This compound had an LD50 at 168 h in data set [1] of 253 mg/kg.

In the case of `CNC1COc2ccccc2C(=O)C1` (racemic) [Compound 1, rac.-3-methylamino-3,4-dihydro-1-benzoxepin-5(2H)-one], in the data set on gastric peristalsis, the inhibition in vivo at 20 mg/kg was found to be 8% and the “Factor of the Increase in Amplitude” value is given as 1.6. In data set [1], this compound gave an LD50 at 168 h of 137 mg/kg.

Compound `CN[C@@H]1COc2ccccc2[C@H](O)C1` (relative stereo) [A] returned a 50% lethal dose (LD50) at 168 h in data set [1] of 342 mg/kg.

With `CN(C)CCCNC1COc2ccc(Cl)cc2C(=O)C1` (racemic) [Compound 6, rac.-3-(γ-dimethylamino-propylamino)-7-chloro-3,4-dihydro-1-benzoxepin-5(2H)-one], in the data set with gastric peristalsis, the inhibition in vivo at 20 mg/kg stood at 29% and the “Factor of the Increase in Amplitude” value worked out at 3.4. In data set [1], this compound had an LD50 at 168 h of 296 mg/kg.

Regarding `O[C@@H]1C[C@H](NCc2ccccc2)COc2ccccc21` (relative stereo) [D], in the data set with gastric peristalsis, the inhibition in vivo at 20 mg/kg came to 21%. Also, in data set [1], the LD50 at 168 h was determined as 92 mg/kg.

Turning to `O[C@@H]1C[C@H](N2CCCC2)COc2ccccc21` (relative stereo) [K], in the data set with gastric peristalsis, the inhibition in vivo at 20 mg/kg came to 10%.

For the origin of these results see patent US4279904A, “3-Amino-1-benzoxepine derivatives and their salts and pharmaceutical compositions thereof” (Kali-Chemie Pharma GmbH, priority 1979, dated 1981).
